From ChEMBL document CHEMBL1148111, “Synthesis and biological evaluation of hyperforin analogues. Part I. Modification of the enolized cyclohexanedione moiety” (J Nat Prod, 2002)
pIC50: −log10 of the molar value.

Target: Sodium-dependent serotonin transporter (Rattus norvegicus, UniProt P31652)
Test: Inhibition of [3H]5HT reuptake at serotonin transporter in rat brain synaptosomes
Type: subcellular

Chain of Sodium-dependent serotonin transporter (P31652 whole entry): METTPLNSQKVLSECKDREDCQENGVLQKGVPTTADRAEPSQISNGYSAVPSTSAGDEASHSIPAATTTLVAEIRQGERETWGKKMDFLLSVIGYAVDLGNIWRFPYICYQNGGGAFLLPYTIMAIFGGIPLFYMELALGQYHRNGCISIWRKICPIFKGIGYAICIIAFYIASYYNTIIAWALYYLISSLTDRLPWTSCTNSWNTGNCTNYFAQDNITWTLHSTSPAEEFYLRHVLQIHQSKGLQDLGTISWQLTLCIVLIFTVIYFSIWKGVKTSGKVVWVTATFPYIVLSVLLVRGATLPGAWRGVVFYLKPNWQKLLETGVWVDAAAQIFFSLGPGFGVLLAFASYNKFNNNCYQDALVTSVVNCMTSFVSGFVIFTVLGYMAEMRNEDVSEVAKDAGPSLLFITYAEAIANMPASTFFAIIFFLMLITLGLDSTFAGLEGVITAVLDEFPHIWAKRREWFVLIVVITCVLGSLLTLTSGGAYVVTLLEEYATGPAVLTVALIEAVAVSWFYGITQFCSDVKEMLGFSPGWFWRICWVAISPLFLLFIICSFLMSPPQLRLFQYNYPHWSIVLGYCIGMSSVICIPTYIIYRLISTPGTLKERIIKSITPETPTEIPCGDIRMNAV

| Structure (SMILES) | pIC50 |
| --- | --- |
| CC(C)=CCC[C@]1(C)[C@@H](CC=C(C)C)C[C@]2(CC=C(C)C)C(=O)C(CC=C(C)C)=C(O)[C@@]1(C(=O)C(C)C)C2=O | 5.69 |
| CC(C)=CCC[C@]1(C)[C@@H](CC=C(C)C)C[C@]2(CC=C(C)C)C(=O)[C@@](O)(CC=C(C)C)C(=O)[C@@]1(C(=O)C(C)C)C2=O | < 4.74 |
| CC(C)=CCC[C@]1(C)[C@@H](CC=C(C)C)C[C@]2(CC=C(C)C)C(=O)[C@]3(CC=C(C)C)O[C@@]2(O)[C@@]1(C(=O)C(C)C)C3=O | < 4.74 |
| CC(C)=C/C=C1\C(=O)[C@@]2(CC=C(C)C)C[C@H](CC=C(C)C)[C@@](C)(CCC=C(C)C)[C@](C(=O)C(C)C)(C1=O)C2=O | < 4.73 |
| CC(C)=CCC[C@]1(C)[C@@H](CC=C(C)C)C[C@]23C[C@@H](C(C)(C)O)OC2=C(CC=C(C)C)C(=O)[C@]1(C(=O)C(C)C)C3=O | < 4.74 |
| C=C(C)[C@@H]1C[C@@]23C[C@H](CC=C(C)C)[C@@](C)(CCC=C(C)C)[C@](C(=O)C(C)C)(C(=O)C(CC=C(C)C)=C2O1)C3=O [DEHYDROFUROHYPERFORIN] | < 4.73 |
| CC(C)=CCC[C@]1(C)[C@@H](CC=C(C)C)C[C@@]2(CC=C(C)C)C(=O)[C@]1(C(=O)C(C)C)C(=O)C1=C2OC(C)(C)C=C1 [DEHYDROHYPERFORIN] | < 4.73 |

The remaining lines, values ahead:

| pIC50 | Structure (SMILES) |
| --- | --- |
| < 4.86 | CC(C)=CCC[C@]1(C)[C@@H](CC=C(C)C)C[C@@]2(CC=C(C)C)C(=O)[C@@]1(C(=O)C(C)C)C(=O)C(CC=C(C)C)=C2OC(=O)c1cc([N+](=O)[O-])cc([N+](=O)[O-])c1 |
| < 4.74 | COC1=C(CC=C(C)C)C(=O)[C@]2(C(=O)C(C)C)C(=O)[C@]1(CC=C(C)C)C[C@H](CC=C(C)C)[C@@]2(C)CCC=C(C)C |
| < 4.74 | CC(C)=CCC[C@]1(C)[C@@H](CC=C(C)C)C[C@]2(CC=C(C)C)C(=O)[C@](C)(CC=C(C)C)C(=O)[C@]1(C(=O)C(C)C)C2=O [C-Methylhyperforin] |
| < 4.76 | CC(=O)OC1=C(CC=C(C)C)C(=O)[C@]2(C(=O)C(C)C)C(=O)[C@]1(CC=C(C)C)C[C@H](CC=C(C)C)[C@@]2(C)CCC=C(C)C [HYPERFORIN ACETATE] |
| < 4.86 | COc1cc(C(=O)OC2=C(CC=C(C)C)C(=O)[C@@]3(C(=O)C(C)C)C(=O)[C@]2(CC=C(C)C)C[C@H](CC=C(C)C)[C@@]3(C)CCC=C(C)C)cc(OC)c1OC [HYPERFORINTRIMETHOXYBENZOATE] |
